Assay results: article PMC6320863, “Interaction of Chrysin and Its Main Conjugated Metabolites Chrysin-7-Sulfate and Chrysin-7-Glucuronide with Serum Albumin” (International Journal of Molecular Sciences, 2018)

Columns and labels:
[1] = target: T1, human serum albumin (HSA) (Homo sapiens, UniProt P02768); experiment: Fluorescence quenching of HSA by flavonoids (Stern–Volmer and Hyperquad2006 evaluation); assay type: binding; conditions: for Kd / logKSV (Stern–Volmer quenching constant): HSA 2 µmol/L, decimal log ± SEM; for Kd: PBS pH 7.4, Hyperquad2006, read-out: logK (binding constant) (converted); for logKSV (Stern–Volmer quenching constant): PBS pH 7.4, λex 295 nm, λem 340 nm; for Stability of flavonoid–HSA complex vs. the chrysin–HSA complex: relative to chrysin–HSA
T1 construct: purchased Sigma-Aldrich
Description: (§1) Fluorescence spectroscopic measurements were carried out employing a Hitachi F-4500 fluorimeter (Tokyo, Japan). Absorption spectra of flavonoids were recorded using a HALO DB-20 UV-Vis spectrophotometer (Dynamica, London, UK). Spectroscopic measurements were performed in phosphate-buffered saline (pH 7.4; PBS: 8.0 g/L NaCl, 0.2 g/L KCl, 1.81 g/L Na2HPO4·2H2O, and 0.24 g/L KH2PO4) at room temperature, in the presence of air.
(§2) The complex formation of flavonoids with albumin was tested with both HSA and BSA. Binding constants of flavonoid–albumin complexes were determined by fluorescence quenching, during which emission spectra of albumins (2 µmol/L) were recorded in the presence of increasing flavonoid concentrations (0.0, 0.5, 1.0, 2.0, 3.0, 4.0 and 5.0 µmol/L; λexc = 295 nm). Quenching studies were evaluated based on the graphical application of the Stern–Volmer equation [31, 34]. To eliminate the potential inner filter effects of flavonoids, fluorescence intensities were corrected as described.
(§3) Binding constants (K) of flavonoid–albumin complexes were also evaluated by non-linear fitting employing the Hyperquad2006 program package (Protonic Software, Leeds, UK) as described elsewhere. Binding constants and stoichiometry were quantified based on the model with the lowest standard deviation.

[2] = target: T2, bovine serum albumin (BSA) (Bos taurus, UniProt P02769); experiment: Fluorescence quenching of BSA by flavonoids (Stern–Volmer and Hyperquad2006 evaluation); assay type: binding; conditions: BSA 2 µmol/L, decimal log ± SEM; for Kd: PBS pH 7.4, Hyperquad2006, read-out: logK (binding constant) (converted); for logKSV (Stern–Volmer quenching constant): PBS pH 7.4, λex 295 nm, λem 340 nm
T2 construct: purchased Sigma-Aldrich
Description: as §1, §2, §3

[3] = test system: T3, warfarin–HSA complex (Sudlow's Site I); experiment: Ultrafiltration: displacement of Site I marker warfarin from HSA; assay type: binding, human; conditions: 1 µmol/L warfarin, 5 µmol/L HSA, PBS pH 7.4
T3 construct: purchased Sigma-Aldrich
Description: (§4) Effects of chrysin, C7S, and C7G on the albumin-binding of Sudow’s Site I (warfarin) and Site II (naproxen) markers were tested by ultrafiltration. In these experiments, Pall Microsep^TM Advance Centrifugal Devices (Pall Corporation, Ann Arbor, MI, USA) (from VWR) with a 30 kDa molecular weight cut-off value were employed, as described elsewhere. To examine the displacement of warfarin by flavonoids, samples contained warfarin and HSA (1.0 and 5.0 µmol/L, respectively) in the absence and presence of flavonoids (10 or 20 µmol/L). Furthermore, to test the displacing ability of chrysin and its metabolites vs. naproxen, flavonoids (10 or 20 µmol/L) were added to naproxen and HSA (1.0 and 1.7 µmol/L, respectively). Each sample was prepared in PBS (pH 7.4). Before ultrafiltration, filter units were washed once with 3 mL of water, and twice with 3 mL of PBS (to completely eliminate glycerol from the filters). Thereafter, samples (2.5 mL each) were driven through the filter units by centrifugation at 7500 g and 25 °C for 10 min (fixed angle rotor). Concentrations of warfarin and naproxen in the filtrate were quantified with HPLC (see details in Section 4.4).
(§5) The HPLC system used to quantify warfarin and naproxen was equipped with a pump (model 510, Waters, Milford, MA, USA) and an injector (Rheodyne 7125, Rheodyne, Berkeley, CA, USA) with a 20 µL sample loop. Warfarin and naproxen were analyzed with a fluorescence detector (Jasco FP-920, Reanal) and an UV detector (Waters 486), respectively. Data were evaluated using Millennium Chromatography Manager (Waters).
Warfarin was analyzed based on the previously reported method without modifications. Methanol (VWR), acetonitrile (VWR), and sodium phosphate buffer (20 mM, pH 7.0) (25:5:70 v/v%) were applied in the mobile phase with 1 mL/min flow rate during the isocratic elution. Samples were driven through a guard column (Phenomenex SecurityGuard^TM Catridge C18 4.0 × 3.0 mm) linked to an analytical column (Nova-Pak C18 150 × 3.9 mm, 4 μm). Separation and analysis were performed at room temperature, during which warfarin was detected by fluorescence employing 310 and 390 nm as excitation and emission wavelengths, respectively.

[4] = test system: T4, naproxen–HSA complex (Sudlow's Site II); experiment: Ultrafiltration: displacement of Site II marker naproxen from HSA; assay type: binding, human; conditions: 1 µmol/L naproxen, 1.7 µmol/L HSA, PBS pH 7.4
T4 construct: purchased Sigma-Aldrich
Description: as §4, §5
Naproxen was quantified based on the previously reported method without modifications. Acetonitrile and sodium acetate buffer (6.9 mM, pH 4.0) (50:50 v/v%) were applied in the mobile phase with a 1 mL/min flow rate during the isocratic elution. […] Separation and analysis were performed at room temperature, during which naproxen was detected by absorbance at 230 nm.

warfarin–HSA complex [5] = test system: T5, warfarin–HSA complex; experiment: Steady-state fluorescence of warfarin–HSA complex (displacement of warfarin); assay type: binding, human; conditions: 1.0 µmol/L warfarin, 3.5 µmol/L HSA, flavonoid 0.5–10 µmol/L, λex 317 nm
T5 construct: purchased Sigma-Aldrich
Description: as §1
Displacement of warfarin (site marker of Sudlow’s Site I) from HSA was examined based on the previously reported model. Increasing concentrations of chrysin, C7S, and C7G (0.0, 0.5, 1.0, 2.0, 3.0, 5.0, and 10 µmol/L) were added to standard concentrations of warfarin and HSA (1.0 and 3.5 µmol/L, respectively). Thereafter, fluorescence emission spectra were recorded using 317 nm as excitation wavelength.

warfarin–HSA complex [6] = test system: T5, warfarin–HSA complex; experiment: Fluorescence anisotropy of warfarin–HSA complex; assay type: binding, human; conditions: 1.0 µmol/L warfarin, 2.0 µmol/L HSA, increasing flavonoid concentrations, λex 317 nm, λem 379 nm
Description: as §1
To confirm further the displacement of warfarin from HSA by chrysin, C7S, and C7G, fluorescence anisotropy measurements were also performed. Increasing concentrations of flavonoids (0.0, 1.0, 2.0, 5.0, and 10 µmol/L) were added to warfarin and HSA (1.0 and 2.0 µmol/L, respectively). Fluorescence anisotropy values were determined (λex = 317 nm; λem = 379 nm) as described.

[7] = parameters: method as in PMID 25715997; conditions: mice, oral administration of 20 mg/kg chrysin; read-out: Cmax (peak plasma concentration); cited from earlier work
[8] = parameters: method as in PMID 11259985; conditions: healthy human volunteers, 400 mg chrysin orally; cited from earlier work
HSA = conditions: cited from earlier work
[9] = 10 or 20 μM flavonoid (both concentrations)
[10] = 10 and 20 μM flavonoid (both concentrations)

T1 sequence (P02768 25-609): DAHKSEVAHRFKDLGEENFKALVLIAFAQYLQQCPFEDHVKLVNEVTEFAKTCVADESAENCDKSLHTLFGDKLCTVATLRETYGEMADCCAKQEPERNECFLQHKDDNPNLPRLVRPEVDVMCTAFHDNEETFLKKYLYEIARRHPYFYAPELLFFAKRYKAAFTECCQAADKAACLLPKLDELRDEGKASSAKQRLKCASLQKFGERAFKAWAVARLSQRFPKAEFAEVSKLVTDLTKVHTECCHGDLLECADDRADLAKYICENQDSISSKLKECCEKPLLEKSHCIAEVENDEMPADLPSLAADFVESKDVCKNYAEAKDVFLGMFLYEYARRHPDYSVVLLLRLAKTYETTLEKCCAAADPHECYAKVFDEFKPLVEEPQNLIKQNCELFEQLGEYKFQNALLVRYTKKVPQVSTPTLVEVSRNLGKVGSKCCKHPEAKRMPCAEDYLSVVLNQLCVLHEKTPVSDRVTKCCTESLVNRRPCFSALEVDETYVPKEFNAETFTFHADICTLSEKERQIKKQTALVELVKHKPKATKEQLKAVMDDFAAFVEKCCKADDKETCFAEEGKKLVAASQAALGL
T2 sequence (P02769 25-607): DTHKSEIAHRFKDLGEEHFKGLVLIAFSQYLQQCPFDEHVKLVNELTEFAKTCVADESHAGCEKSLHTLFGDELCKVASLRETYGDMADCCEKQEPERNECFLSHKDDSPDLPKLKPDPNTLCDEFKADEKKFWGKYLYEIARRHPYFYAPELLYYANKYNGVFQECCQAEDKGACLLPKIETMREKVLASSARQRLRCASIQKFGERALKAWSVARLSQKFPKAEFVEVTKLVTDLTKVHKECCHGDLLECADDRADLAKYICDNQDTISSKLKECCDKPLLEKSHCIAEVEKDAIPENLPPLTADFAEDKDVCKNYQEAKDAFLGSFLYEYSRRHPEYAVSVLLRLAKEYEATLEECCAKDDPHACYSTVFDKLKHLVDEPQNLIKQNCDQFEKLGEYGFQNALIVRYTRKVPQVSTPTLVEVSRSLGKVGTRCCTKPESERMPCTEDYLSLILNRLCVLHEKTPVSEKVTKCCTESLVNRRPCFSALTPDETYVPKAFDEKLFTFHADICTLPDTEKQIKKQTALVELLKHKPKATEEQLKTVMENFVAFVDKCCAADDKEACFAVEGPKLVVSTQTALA

SMILES | Kd [1] [µM] | logKSV (Stern–Volmer quenching constant) [1] [L/mol] | Stability of flavonoid–HSA complex vs. the chrysin–HSA complex [1] | Kd [2] [µM] | logKSV (Stern–Volmer quenching constant) [2] [L/mol] | Concentration of warfarin in the filtrate ([3]; 10 μM flavonoid) | Concentration of warfarin in the filtrate [3, 9] | Concentration of naproxen in the filtrate [4, 10] | Fluorescence emission signal of warfarin at 379 nm (warfarin–HSA complex [5]) | Fluorescence anisotropy of warfarin (warfarin–HSA complex [6]) | Cmax [7] [nM] | AUC0–∞ [8] [ng·h/mL] | AUC0–∞ of C7S compared with chrysin [8] | logK (complex with HSA) (HSA) | Concentration of naproxen in the filtrate ([4]; higher flavonoid concentration (20 μM)) | Concentration of warfarin in the filtrate ([3]; 20 μM flavonoid) | K (binding constant to HSA) (HSA)
O=c1cc(-c2ccccc2)oc2cc(OS(=O)(=O)O)cc(O)c12 [Chrysin-7-sulfate, chrysin-7-sulfate] | 1.32 | 5.61 ± 0.03 | threefold higher | 0.631 | 5.86 ± 0.04 | remarkable increase | practically the complete displacement of bound warfarin molecules from HSA | statistically significant elevation | strongest decrease | strong decrease | 160 | 420 to 4220 | approximately 30 fold |  |  |  | 
C[C@@H]1Cc2c(Cl)cc(C(=O)N[C@@H](Cc3ccccc3)C(=O)O)c(O)c2C(=O)O1 [Ochratoxin A, ochratoxin A, reference compound] |  |  |  |  |  |  |  |  |  |  |  |  |  | 7.4–7.6 |  |  | 
O=C(O)C1OC(Oc2cc(O)c3c(=O)cc(-c4ccccc4)oc3c2)C(O)C(O)C1O (stereo not shown) [Chrysin-7-glucuronide, chrysin-7-glucuronide] | 12.9 | 4.71 ± 0.03 | threefold lower | 23.4 | 4.34 ± 0.03 |  | did not significantly change |  | only a slight (but statistically significant) effect |  | 130 |  |  |  | significant effect |  | 
O=c1cc(-c2ccccc2)oc2cc(O)cc(O)c12 [Chrysin, 5,7-dihydroxyflavone] | 3.89 | 5.25 ± 0.02 |  | 6.31 | 5.03 ± 0.06 |  |  | statistically significant elevation | significantly decreased | strong decrease | 10 | 3 to 16 |  |  |  | statistically significant (albeit slight) increase | 10^5–10^6 L/mol
